Consider four compounds from ChEMBL document CHEMBL4265897, “Discovery of benzothiazole amides as potent antimycobacterial agents” (Bioorg Med Chem Lett, 2018).

Data set [1] is described as follows: Clearance in mouse plasma at 10 mg/kg, iv. It is filed as ADME, organism-based.
Another data set relates to Mycobacterium avium. Nature of the data set: Antimycobacterial activity against Mycobacterium avium 101 by CLSI method. The class given is functional.
Data set [2] relates to Mycobacteroides abscessus. Description: Antimycobacterial activity against Mycobacterium abscessus 21 by CLSI method. The class given is functional.
The test system of data set [3] is Mycobacteroides abscessus. Description: Antimycobacterial activity against Mycobacterium abscessus 103 by CLSI method. The class given is functional.
Data set [4] concerns Mycobacterium intracellulare. Nature of the data set: Antimycobacterial activity against Mycobacterium intracellulare 1956 by CLSI method. It is filed as functional.
The nature of data set [5]: Solubility of the compound. The class given is physicochemical.
The target of the next data set is Cytochrome P450 2C19 (Homo sapiens, UniProt P33261). Description: Inhibition of CYP2C19 (unknown origin). The class given is ADME.
The target of data set [6] is T1, Cytochrome P450 3A4 (Homo sapiens, UniProt P08684). Nature of the data set: Inhibition of CYP3A4 (unknown origin) using midazolam as substrate. It is filed as ADME.
Data set [7] in a line: Protein binding in human serum. It is filed as ADME, cell-free. To be noted: read-out: PB.
A short description of data set [8]: Oral bioavailability in mouse at 100 mg/kg. The class given is ADME, organism-based. To be noted: in vivo.
The test system of the next data set is Mycobacteroides chelonae. Nature of the data set: Antimycobacterial activity against Mycobacterium chelonae 93 by CLSI method. It is filed as functional.
For a further data set, the system named is RBCs. Description: Hemolytic activity in RBC (unknown origin) at 128 ug/ml. The class given is ADME, cell-based. The conditions noted are these: erythrocyte.
In data set [9] the test system is Mycobacterium tuberculosis. Nature of the data set: Antimycobacterial activity against Mycobacterium tuberculosis H37Rv MC2 6206 by CLSI method. The class given is functional.
For a further data set, the target named is Cytochrome P450 2C9 (Homo sapiens, UniProt P11712). Nature of the data set: Inhibition of CYP2C9 (unknown origin). The class given is ADME.
For data set [10], the target named is T1, Cytochrome P450 3A4. Description: Inhibition of CYP3A4 (unknown origin) using testosterone as substrate. The class given is ADME.
The test system of data set [11] is Mycobacteroides abscessus. Nature of the data set: Antimycobacterial activity against Mycobacterium abscessus 79 by CLSI method. The class given is functional.
Data set [12] concerns Mycolicibacterium fortuitum. Description: Antimycobacterial activity against Mycobacterium fortuitum 41 by CLSI method. The class given is functional.
The target in a further data set is Cytochrome P450 2D6 (Homo sapiens, UniProt P10635). Description: Inhibition of CYP2D6 (unknown origin). It is filed as ADME.
In a further data set the target is T2, Cytochrome P450 2C8 (Homo sapiens, UniProt P10632).
T2 sequence (P10632 whole entry): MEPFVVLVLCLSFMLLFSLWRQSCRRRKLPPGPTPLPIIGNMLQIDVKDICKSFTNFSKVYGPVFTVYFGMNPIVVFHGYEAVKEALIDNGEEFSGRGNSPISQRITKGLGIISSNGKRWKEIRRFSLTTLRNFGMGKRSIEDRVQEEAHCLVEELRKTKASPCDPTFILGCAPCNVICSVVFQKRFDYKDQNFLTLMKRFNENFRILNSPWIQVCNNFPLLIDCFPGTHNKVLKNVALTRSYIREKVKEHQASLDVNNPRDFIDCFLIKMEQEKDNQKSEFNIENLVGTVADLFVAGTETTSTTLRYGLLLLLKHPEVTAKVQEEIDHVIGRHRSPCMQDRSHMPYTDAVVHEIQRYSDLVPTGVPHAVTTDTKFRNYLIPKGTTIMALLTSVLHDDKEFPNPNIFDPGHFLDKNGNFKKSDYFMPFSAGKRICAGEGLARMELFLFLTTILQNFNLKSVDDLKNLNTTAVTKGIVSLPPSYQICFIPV
Description: Inhibition of CYP2C8 (unknown origin). The class given is ADME.

The target of another data set is T3, Cytochrome P450 2B6 (Homo sapiens, UniProt P20813).
T3 sequence (P20813 whole entry): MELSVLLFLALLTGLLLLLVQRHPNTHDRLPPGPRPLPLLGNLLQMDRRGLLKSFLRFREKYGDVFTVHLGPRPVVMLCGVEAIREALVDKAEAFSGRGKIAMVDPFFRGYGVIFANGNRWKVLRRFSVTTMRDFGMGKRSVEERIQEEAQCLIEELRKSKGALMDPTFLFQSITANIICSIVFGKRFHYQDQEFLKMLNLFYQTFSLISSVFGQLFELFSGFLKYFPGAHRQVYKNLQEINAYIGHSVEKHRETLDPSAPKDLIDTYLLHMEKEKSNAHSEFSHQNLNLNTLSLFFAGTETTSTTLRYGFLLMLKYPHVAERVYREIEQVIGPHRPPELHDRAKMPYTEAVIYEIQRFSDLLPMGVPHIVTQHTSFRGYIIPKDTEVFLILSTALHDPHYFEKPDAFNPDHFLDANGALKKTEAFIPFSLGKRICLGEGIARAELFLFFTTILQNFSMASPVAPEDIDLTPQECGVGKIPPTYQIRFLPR
Description: Inhibition of CYP2B6 (unknown origin). It is filed as ADME.

The test system of data set [13] is Mycobacteroides abscessus. Description: Antimycobacterial activity against Mycobacterium massiliense 119 by CLSI method. The class given is functional, Mycobacterium abscessus subsp. massiliense.
The subject of data set [14] is Mycobacteroides abscessus. Description: Antimycobacterial activity against Mycobacterium abscessus 1 by CLSI method. It is filed as functional.
Data set [15] deals with Mycolicibacterium peregrinum. Nature of the data set: Antimycobacterial activity against Mycobacterium peregrinum ATCC 700686 by CLSI method. It is filed as functional.
The next data set addresses CYP3A4 (Homo sapiens, UniProt P08684). Description: Inhibition of CYP3A4 (unknown origin) at 10 uM. The class given is ADME.
The target in the next data set is T4, CYP2B6 (Homo sapiens, UniProt P20813).
T4 sequence (P20813 whole entry): T3 sequence (P20813 whole entry)
Nature of the data set: Inhibition of CYP2B6 (unknown origin) at 10 uM. It is filed as ADME.

The test system of a further data set is Mus musculus. Nature of the data set: Toxicity in mouse assessed as abnormal behavior at 100 to 300 mg/kg, po administered as single dose. The class given is organism-based. The conditions noted are these: in vivo.

Converted amounts (≈) assume the structure as drawn.

T1 sequence (P08684 whole entry): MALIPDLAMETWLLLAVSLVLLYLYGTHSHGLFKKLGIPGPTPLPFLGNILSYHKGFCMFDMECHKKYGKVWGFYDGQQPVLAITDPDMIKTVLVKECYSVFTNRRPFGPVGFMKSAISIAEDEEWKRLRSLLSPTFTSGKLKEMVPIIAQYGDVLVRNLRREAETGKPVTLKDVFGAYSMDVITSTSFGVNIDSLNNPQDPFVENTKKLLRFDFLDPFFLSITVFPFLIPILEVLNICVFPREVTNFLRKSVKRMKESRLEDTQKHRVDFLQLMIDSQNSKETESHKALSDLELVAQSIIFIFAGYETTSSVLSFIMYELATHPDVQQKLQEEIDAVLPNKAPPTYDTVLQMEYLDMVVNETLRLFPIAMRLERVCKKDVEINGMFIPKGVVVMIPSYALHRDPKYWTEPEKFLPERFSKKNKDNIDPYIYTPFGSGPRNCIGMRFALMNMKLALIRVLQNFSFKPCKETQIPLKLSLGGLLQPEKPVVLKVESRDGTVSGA
Chain of CYP3A4 (P08684 whole entry): as above
Chain of Cytochrome P450 2D6 (P10635 whole entry): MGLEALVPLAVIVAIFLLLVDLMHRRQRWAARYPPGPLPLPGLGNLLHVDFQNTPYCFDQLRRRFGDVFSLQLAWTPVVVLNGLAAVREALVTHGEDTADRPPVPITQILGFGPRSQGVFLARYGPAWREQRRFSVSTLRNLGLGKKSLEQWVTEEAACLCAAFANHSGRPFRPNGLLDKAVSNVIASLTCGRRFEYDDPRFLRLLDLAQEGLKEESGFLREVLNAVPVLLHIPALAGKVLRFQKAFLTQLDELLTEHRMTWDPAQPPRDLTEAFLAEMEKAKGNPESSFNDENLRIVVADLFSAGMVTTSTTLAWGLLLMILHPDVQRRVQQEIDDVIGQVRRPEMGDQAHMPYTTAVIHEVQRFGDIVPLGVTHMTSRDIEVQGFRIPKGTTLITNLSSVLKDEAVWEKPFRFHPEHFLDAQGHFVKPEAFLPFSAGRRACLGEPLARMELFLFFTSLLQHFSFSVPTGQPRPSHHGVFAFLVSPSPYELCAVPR
Chain of Cytochrome P450 2C19 (P33261 whole entry): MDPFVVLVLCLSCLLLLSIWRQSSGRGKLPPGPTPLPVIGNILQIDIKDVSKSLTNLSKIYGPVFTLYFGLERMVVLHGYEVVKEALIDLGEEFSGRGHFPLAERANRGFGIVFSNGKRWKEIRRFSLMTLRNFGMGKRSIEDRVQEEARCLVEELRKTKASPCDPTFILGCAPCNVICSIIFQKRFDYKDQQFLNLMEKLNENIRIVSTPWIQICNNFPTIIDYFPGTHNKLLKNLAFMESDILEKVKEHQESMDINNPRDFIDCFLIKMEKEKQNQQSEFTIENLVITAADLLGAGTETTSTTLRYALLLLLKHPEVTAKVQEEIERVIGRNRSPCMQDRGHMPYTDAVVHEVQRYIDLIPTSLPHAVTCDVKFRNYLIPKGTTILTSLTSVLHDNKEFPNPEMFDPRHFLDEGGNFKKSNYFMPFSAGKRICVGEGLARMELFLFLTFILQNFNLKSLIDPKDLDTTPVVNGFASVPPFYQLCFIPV
Chain of Cytochrome P450 2C9 (P11712 whole entry): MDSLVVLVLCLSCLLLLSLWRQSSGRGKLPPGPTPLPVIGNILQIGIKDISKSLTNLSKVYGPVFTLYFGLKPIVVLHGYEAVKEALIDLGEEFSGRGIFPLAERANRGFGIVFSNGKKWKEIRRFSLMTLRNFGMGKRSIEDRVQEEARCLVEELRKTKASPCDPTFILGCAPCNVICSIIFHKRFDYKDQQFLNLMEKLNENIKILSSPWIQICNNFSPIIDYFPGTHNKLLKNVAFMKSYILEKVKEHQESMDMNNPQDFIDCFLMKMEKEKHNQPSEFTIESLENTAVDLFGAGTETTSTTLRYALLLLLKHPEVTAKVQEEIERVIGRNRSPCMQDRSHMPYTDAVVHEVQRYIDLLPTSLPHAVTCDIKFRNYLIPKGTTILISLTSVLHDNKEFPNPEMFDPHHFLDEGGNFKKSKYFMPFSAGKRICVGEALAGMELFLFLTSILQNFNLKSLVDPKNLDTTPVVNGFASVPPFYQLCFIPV

As a reminder, the clearance is the volume of plasma or blood freed of the substance per unit of time. High values mean a high capacity for elimination, low ones a low capacity for elimination. What is called MIC is the least concentration at which growth counts as inhibited. High values mean a need for much substance, low ones inhibition by little substance. Broadly, the IC50 is the concentration that inhibits the measured activity by half. Usually bioavailability stands for the share of a dose that reaches the circulation, judged against a reference dose that is usually intravenous. With `CC1CC(C)CC(C(=O)Nc2nc3ccc(C(F)(F)F)cc3s2)C1` (stereo not given), in data set [1], the clearance is 28.3 mL/min/kg. Besides, the MIC in the data set with Mycobacterium avium was more than 64 µg/mL; in data set [2] it was 1 µg/mL (≈ 2.81 µM); in data set [3] it was 0.25 µg/mL (≈ 0.701 µM); in data set [4] it was more than 64 µg/mL; in the data set on Mycobacteroides chelonae it was 1 µg/mL (≈ 2.81 µM); in data set [9], 4 µg/mL (≈ 11.2 µM). In addition, the MIC in data set [11] was 2 µg/mL (≈ 5.61 µM); in data set [12] it was 1 µg/mL (≈ 2.81 µM); in data set [13], 0.5 µg/mL (≈ 1.4 µM); in data set [14], 2 µg/mL (≈ 5.61 µM); in data set [15], 0.25 µg/mL (≈ 0.701 µM). Besides, in data set [5], the solubility entry is “Insoluble”. Further, the 50% inhibitory concentration (IC50) on Cytochrome P450 2C19 is more than 20 µM; on Cytochrome P450 3A4 [6], more than 20 µM; on Cytochrome P450 2C9, more than 20 µM; on Cytochrome P450 3A4 [10], more than 20 µM; on Cytochrome P450 2D6, 1.4 µM; against Cytochrome P450 2C8, more than 20 µM. On Cytochrome P450 2B6, this compound returned an IC50 of more than 20 µM. For the same compound, the fraction unbound in data set [7] was less than 0.01. For the same compound, the bioavailability in data set [8] worked out at 53%. The Activity result in the data set with RBCs is “Non-Toxic”.

In general, inhibition refers to how much of the control response was suppressed. For `CC12CCCC(C(=O)Nc3nc4cc(Cl)cc(Cl)c4s3)(CCC1)C2`, the MIC with Mycobacterium avium is 2 µg/mL (≈ 5.22 µM); in data set [2], 0.03 µg/mL (≈ 0.0783 µM); in data set [3], 0.03 µg/mL (≈ 0.0783 µM); in [4] it was 2 µg/mL (≈ 5.22 µM); against Mycobacteroides chelonae, 0.03 µg/mL (≈ 0.0783 µM); in [9], not above 0.12 µg/mL. For the same compound, the MIC in data set [11] worked out at 0.03 µg/mL (≈ 0.0783 µM); in data set [12] it was 0.06 µg/mL (≈ 0.157 µM); in data set [13], 0.03 µg/mL (≈ 0.0783 µM); in [14] it was 0.06 µg/mL (≈ 0.157 µM); in data set [15], 0.03 µg/mL (≈ 0.0783 µM). Moreover, the inhibition at 10 µM at CYP3A4 and at CYP2B6 was more than 50% each time.

Consider `CC1CC(C(=O)Nc2nc3c(F)cc(F)cc3s2)CC(C)(C)C1` (stereo not given), for which the MIC in the data set with Mycobacterium avium is 64 µg/mL (≈ 189 µM); in [2], 0.5 µg/mL (≈ 1.48 µM); in data set [3], 0.5 µg/mL (≈ 1.48 µM); in data set [4] it was 4 µg/mL (≈ 11.8 µM); in the data set on Mycobacteroides chelonae it was 0.25 µg/mL (≈ 0.739 µM); in data set [11] it was 0.5 µg/mL (≈ 1.48 µM). The minimum inhibitory concentration (MIC) in [12] turned out to be 0.25 µg/mL (≈ 0.739 µM); in data set [13] it was 0.5 µg/mL (≈ 1.48 µM); in data set [14] it was 1 µg/mL (≈ 2.95 µM); in data set [15], 0.2 µg/mL (≈ 0.591 µM). In addition, the Activity result in the data set with Mus musculus is listed as “Non-Toxic”.

With `CC12CCCC(C(=O)Nc3nc4ccc(OC(F)(F)F)cc4s3)(CCC1)C2`, the minimum inhibitory concentration (MIC) came to 2 µg/mL (≈ 5.02 µM) against Mycobacterium avium; 0.06 µg/mL (≈ 0.151 µM) in data set [2]; 0.12 µg/mL (≈ 0.301 µM) in data set [3]; 2 µg/mL (≈ 5.02 µM) in data set [4]; 0.06 µg/mL (≈ 0.151 µM) in the data set on Mycobacteroides chelonae; 1 µg/mL (≈ 2.51 µM) in [9]. Further, the MIC in data set [11] was found to be 0.06 µg/mL (≈ 0.151 µM); in data set [12], 0.5 µg/mL (≈ 1.25 µM); in [13], 0.06 µg/mL (≈ 0.151 µM); in data set [14], 0.06 µg/mL (≈ 0.151 µM); in data set [15], 0.06 µg/mL (≈ 0.151 µM). Besides, the inhibition at 10 µM against CYP3A4 and against CYP2B6 was more than 50% in each case.
